Measurements taken from publication PMC5556071, “ATR inhibition facilitates targeting of leukemia dependence on convergent nucleotide biosynthetic pathways” (Nature Communications, 2017).
Where “and” joins values, the source holds several entries; their conditions need not be identical. Equal entries are not always repeated.

Tested on: CEM cells
Experiment: Non-targeted LC-MS metabolite profiling: percent [13C6]glucose labeling and relative metabolite levels
Assay type: cell-based, human
Conditions: CEM cells, 12 h following release from G1 arrest, replicates #1-#6
From the text: To further investigate the functions of dCK and ATR at the G1/S transition in CEM cells, a non-targeted liquid chromatography mass spectrometry (LC-MS) assay was used to determine the utilization of labeled [^13C6]glucose and [^13C9,^15N3]deoxycytidine, the main substrates for de novo and salvage nucleotide biosynthesis, respectively. Of the 166 metabolites identified in CEM cells treated with VE-822 and/or dCKi, 105 metabolites found in all four treatment groups contained glucose-derived ^13C atoms. […] These metabolites included intermediates such as rUTP, rCTP and rCDP in the de novo dCTP biosynthesis (Fig. 1d). […] However, several deoxyribonucleotides, including dCTP, were below the limit of detection of the non-targeted LC-MS approach, raising the concern that the sensitivity of this assay is not sufficient to measure the contribution of the salvage pathway or the ratio of de novo and salvage biosynthesis to these pools. To address this problem, a newly developed targeted MS assay was developed (Fig. 1e and Supplementary Fig. 3). In this assay, samples containing either extracted dNTPs or hydrolyzed DNA from labeled cells are separated by LC for detection by a triple quadrupole mass spectrometer using multiple reaction monitoring (LC-MS/MS-MRM). The first (Q1) and third (Q3) quadrupoles function as mass filters, while the second (Q2) quadrupole serves as a collision chamber (Fig. 1e). For instance, to profile the biosynthetic composition of deoxycytidine (dC) derived from hydrolyzed DNA or dCTP, an intact, protonated dC ion is selected in Q1, followed by fragmentation of the glycosidic bond, which releases protonated cytosine in Q2, that is filtered in Q3 and detected to generate an ion chromatogram. The peak areas for the ion chromatograms of salvage [^13C9,^15N3]dC (red trace), de novo [^13C5]dC (black trace, from [^13C6]glucose) and unlabeled dC (gray trace) (Fig. 1e) are used to determine the relative contributions of the de novo and salvage routes both to dCTP pools and to DNA-incorporated dCTP.
Cells were transferred into RPMI-1640 without glucose and supplemented with 10% dialyzed FBS (Gibco) containing the following labeled substrates: precursors for de novo [U-^13C6]glucose (Sigma-Aldrich, 389374) at 11 mM; precursors for purine salvage [U-^13C10,^15N5]dA (Cambridge Isotopes, CIL 3896), [^15N5]dA (Cambridge Isotopes, NLM-3895) and [^15N5]dG (Cambridge Isotopes, NLM-3899) at 5 µM or as indicated; and precursors for pyrimidine salvage: [U-^13C9,^15N3]dC (Silantes, 124603602) and [U-^13C10,^15N2]dT (Cambridge Isotopes, CNLM-3902) at 5 µM and [^15N2]orotate (Cambridge Isotopes, NLM-1048) at indicated concentrations. The cells were incubated for 12 h or as indicated before sample collection and processing. […]
Non-targeted LC-MS metabolic assays. 1 x 10^6 cells were washed with ice-cold 150 mM ammonium acetate twice before adding 1 mL of ice-cold 80% methanol with 10 nM norvaline as an internal standard. After vigorous vortexing, samples were centrifuged at maximum speed, the aqueous layer was transferred to a glass vial and the metabolites were dried under vacuum. Metabolites were resuspended in 50 μL 70% acetonitrile (ACN) and 5 μL of this solution used for the mass spectrometer-based analysis. The analysis was performed on a Q Exactive (Thermo Scientific) in polarity-switching mode with positive voltage 4.0 kV and negative voltage 4.0 kV. The mass spectrometer was coupled to an UltiMate 3000RSLC (Thermo Scientific) UHPLC system. Mobile phase A was 5 mM ammonium acetate (NH4AcO), pH 9.9, B was acetonitrile and the separation achieved on a Luna […] NH2 100 A column (150 × 2.0 mm, Phenomenex). The flow was 200 μL/min, and the gradient ran from 15% A to 95% A in 18 min, followed by an isocratic step for 9 min and re-equilibration for 7 min. Metabolites were detected and quantified as area under the curve based on retention time and accurate mass (≤ 3 p.p.m.) using the TraceFinder 3.1 (Thermo Scientific). Relative amounts of […]

[1] = metabolite CDP (KEGG C00112), listed as D
[2] = metabolite CDP-EtA (KEGG C00570), listed as D
[3] = metabolite CMP (KEGG C00055), listed as D
[4] = metabolite CTP (KEGG C00063), listed as D
[5] = metabolite Choline (KEGG C00114), listed as D
[6] = metabolite Cinnamic acid (KEGG C00423), listed as D
[7] = metabolite Cit (KEGG C00158), listed as D
[8] = metabolite Creatine (KEGG C00300), listed as D
[9] = metabolite Creatinine (KEGG C00791), listed as D
[10] = metabolite Cytosine (KEGG C00380), listed as D
[11] = metabolite DMG (KEGG C01026), listed as D
[12] = metabolite Dihydroorotate (KEGG C00337), listed as D
[13] = metabolite F16BP (KEGG C00354), listed as D
[14] = metabolite Folate (KEGG C00504), listed as D
[15] = metabolite Fru (KEGG C00095), listed as D
[16] = metabolite Fum (KEGG C00122), listed as D
[17] = metabolite G (KEGG C00387), listed as D
[18] = metabolite dG (KEGG C00330), listed as D

COc1ccc(-c2nc([C@@H](C)Sc3nc(N)cc(N)n3)c(C)s2)cc1OCCNS(C)(=O)=O [dCKi]
Glucose labeling of CDP [1]: 77.96% and 72.97% and 80.28% and 0.44% and 79.17% and 76.50%
Relative level of CDP [1]: 0.5 and 1.3 and 2.1 and 0.0678 and 0.334 and 0.7
Glucose labeling of CDP-EtA [2]: 70.01% and 72.58% and 83.31% and 72.60% and 75.82% and 67.23%
Relative level of CDP-EtA [2]: 0.9 (4×) and 1.4 and 1.0
Glucose labeling of CMP [3]: 71.05% and 65.79% and 64.24% and 62.92% and 70.94% and 75.98%
Relative level of CMP [3]: 1.0 and 0.663 and 1.8 and 0.2 and 0.366 and 0.8
Glucose labeling of CTP [4]: 81.19% and 79.64% and 75.43% and 84.05% and 71.54% and 81.90%
Relative level of CTP [4]: 0.345 and 0.9 and 1.2 and 0.0446 and 0.234 and 0.445
Glucose labeling of Choline [5]: 0.00256% and 0.00252% and 0.00247% (2×) and 0.00241% and 0.00245%
Relative level of Choline [5]: 1.1 and 1.3 (2×) and 0.842 and 0.8 (2×)
Glucose labeling of Cinnamic acid [6]: 0.00% (5×) and 1.11e-14%
Relative level of Cinnamic acid [6]: 1.2 and 1.3 and 1.6 and 0.8 (2×) and 0.7
Glucose labeling of Cit [7]: 50.63% and 52.82% and 53.30% and 41.63% and 44.16% and 45.64%
Relative level of Cit [7]: 0.8 and 1.3 and 1.4 and 0.367 and 0.6 and 0.7
Glucose labeling of Citraconic acid (metabolite Citraconic acid (KEGG C02226)): 0.00%
Relative level of Citraconic acid (metabolite Citraconic acid (KEGG C02226), listed as D): 1.1 and 1.0 (2×) and 1.3 and 0.645 and 0.9
Glucose labeling of Citrulline (metabolite Citrulline (KEGG C00327)): 0.18%
Relative level of Citrulline (metabolite Citrulline (KEGG C00327), listed as D): 2.2 and 0.259 and 0.529 and 0.8 and 0.4 and 0.527
Glucose labeling of Creatine [8]: 0.000817% and 0.00101% and 2.36e-6% and 0.000311% and 0.000285% and 0.000183%
Relative level of Creatine [8]: 1.0 (4×) and 1.1 (2×)
Glucose labeling of Creatinine [9]: 0.000768% and 0.000756% and 0.000758% and 0.000811% and 0.00078% and 0.000884%
Relative level of Creatinine [9]: 1.2 and 0.952 and 1.0 (2×) and 0.8 and 0.9
Glucose labeling of Cystathionine (metabolite Cystathionine (KEGG C02291)): 0.26%
Relative level of Cystathionine (metabolite Cystathionine (KEGG C02291), listed as D): 1.9 (2×) and 1.8 and 0.9 and 0.634 and 0.644
Glucose labeling of Cytosine [10]: 0.000526% and 0.000773% and 0.000656% and 0.000291% and 0.000873% and 0.0323%
Relative level of Cytosine [10]: 1.6 and 0.8 and 1.1 (2×) and 1.4 and 2.5
Glucose labeling of DHAP (metabolite DHAP (KEGG C00111)): 100.00%
Relative level of DHAP (metabolite DHAP (KEGG C00111)): 0.162
Glucose labeling of DMG [11]: 0.05% and 0.06% and 0.000349% and 0.02% and 0.0219% and 0.03%
Relative level of DMG [11]: 1.0 (2×) and 1.3 (2×) and 1.4 and 1.1
Glucose labeling of Dihydroorotate [12]: 2.31% and 4.79% and 3.17% and 1.21% and 1.28% and 0.88%
Relative level of Dihydroorotate [12]: 1.8 and 2.4 and 1.6 and 0.556 and 0.665 and 0.641
Glucose labeling of F16BP [13]: 45.03% and 62.70% and 85.32% and 37.47% and 50.53% and 49.36%
Relative level of F16BP [13]: 0.184 and 0.186 and 0.7 and 0.137 and 0.132 and 0.115
Glucose labeling of Folate [14]: 100.00% and 0.00% (4×) and 1.11e-14%
Relative level of Folate [14]: 1.8 and 6.1 and 0.8 and 0.376 and 0.9
Glucose labeling of Fru [15]: 17.52% and 38.15% and 34.20% and 21.41% and 18.03% and 26.54%
Relative level of Fru [15]: 1.5 and 0.6 and 0.8 and 1.0 and 1.4 and 0.9
Glucose labeling of Fum [16]: 15.19% and 16.91% and 18.53% and 8.92% and 13.71% and 14.45%
Relative level of Fum [16]: 0.9 and 1.0 and 1.4 and 0.443 and 0.654 and 0.7
Glucose labeling of G [17]: 100.00% (3×) and 0.55% (3×)
Relative level of G [17]: 1.4 and 0.8 and 0.9
Glucose labeling of dATP (metabolite dATP (KEGG C00131)): 100.00%
Relative level of dATP (metabolite dATP (KEGG C00131), listed as D): 0.743 and 1.0
Glucose labeling of dCTP (metabolite dCTP (KEGG C00458)): 100.00%
Relative level of dCTP (metabolite dCTP (KEGG C00458), listed as D): 1.0 and 0.8 and 1.2
Glucose labeling of dG [18]: 0.40% and 0.52% and 0.55% and 0.48% and 0.47% and 0.42%
Relative level of dG [18]: 1.5 and 0.9 (2×) and 1.1 and 0.8 (2×)
Glucose labeling of dGDP (metabolite dGDP (KEGG C00361)): 100.00%
Relative level of dGDP (metabolite dGDP (KEGG C00361)): 0.0
Glucose labeling of dTMP (metabolite dTMP (KEGG C00364)): 100.00%
Relative level of dTMP (metabolite dTMP (KEGG C00364), listed as D): 1.6 (2×) and 1.0 and 2.4
Glucose labeling of dTTP (metabolite dTTP (KEGG C00459)): 100.00%
Relative level of dTTP (metabolite dTTP (KEGG C00459), listed as D): 1.6 and 3.4 and 1.3
Glucose labeling, Lys: 0.00%
Glucose labeling, NAD+: 0.00%
Glucose labeling, Nicotinamide: 0.00%
Glucose labeling, P-Creatine: 0.0737%
Glucose labeling, P-EtA: 0.0123%
Glucose labeling, PEP: 100.00%
Glucose labeling, Phe: 0.00%
Glucose labeling, Pipecolate: 0.00%
Glucose labeling, Pyr: 100.00%
Glucose labeling, Thr (C00188): 0.00%
Glucose labeling, Trigonelline (C01004): 0.00%
